Experimental data taken from patent US9745337B2, “Complex compounds of germanium, methods for producing same, and drugs” (priority 2012, dated 2017).
In brackets after ≈: the same amount, converted by molar mass. Where two headings read alike, the source gives them in different places.

Columns and labels:
[1] = in the presence of low, inefficient concentrations of xanthogenate; cited from earlier work
[2] = tested on: HSV-2; conditions: Vero cells, cited from earlier work
[3] = octanol-water partition coefficient log P; format: physicochemical; conditions: n-octanol and water
From the text: A criterion that can serve as a measure of the absorption of the solute through the wall of the small intestine is permeability, i.e., the fraction of the substance permeating through the intestinal wall. The physicochemical property of a molecule that makes the greatest contribution to permeability is liphophilicity. A measure of lipophilicity to be used in indirect assessment of intestinal permeability is the octanol-water partition coefficient, log P, which is the logarithm of the ratio of concentrations of an unionized substance in the system of two immiscible liquids (n-octanol and water). […]

[4] = physchem
Protocol: (§1) For this purpose, we studied the solubilities of these compounds at various pH values that correspond to the gastrointestinal fluids (for the intestinal fluid: pH is 1.2; for the duodenal fluid: pH 4.4; and for the small intestine fluid: pH 6.8).
(§2) One biopharmaceutical solubility value which allows describing a therapeutic drug (TD) as a compound having “high” or “low” solubility, is the dose/solubility ratio (D/S). The dose/solubility ratio is determined as follows: maximal dose (D) (mg)/water solubility (S) (mg/mL).
(§3) Importantly, biopharmaceutical solubility is not a constant value for a given therapeutic drug (TD); rather, it depends on the maximal registered dosage of an immediate-release TD intended for systemic effects.
(§4) One more biopharmaceutical value is the solubility in biorelevant media. These are dissolution media such that approach the human body fluids (intestinal fluid and gastric fluid) as closely as possible in terms of chemical composition and in terms of physicochemical properties (pH, osmomolality, buffer capacity, and surface tension). The simulation of physiological conditions is provided by introducing surfactants (lecithin and sodium taurocholate) into these media. There are two major types of biorelevant media, namely: an artificial intestinal fluid in an empty stomach (fasted state simulated intestinal fluid (FaSSIF)) and after eating (fed state simulated intestinal fluid (FeSSIF)).

[5] = in vivo; cited from earlier work
[6] = tested on: herpes simplex viruses type 1 (HSV-1); conditions: cited from earlier work
[7] = tested on: HSV-1; conditions: Vero cells, cited from earlier work
[8] = cited from earlier work
[9] = biopharmaceutical and biorelevant solubility (pH media, FaSSIF, FeSSIF)
Protocol: as §1, §2, §3, §4

[10] = tested on: HSV-1 “L2/R” virus; format: cell-based, herpes simplex virus type I; conditions: concentrations of 500 mcg/mL and 250 mcg/mL, VERO
Protocol: The criteria used to evaluate the antiviral activity were: the ability to prevent the development of a virus-induced cytopathic effect and the ability to inhibit reproduction of the virus in the cell culture. Test samples were inserted into the nutrient medium 1 hour after the culture was infected with a certain dose of the virus (the therapeutic scheme). The antiviral activity of the samples and virus-induced cytopathic effects in the cell culture were monitored every day using light microscopy as the degree of morphological alteration of a cell monolayer. The endpoint was on the 4th day of contact of the cells with the infectious material, after a well-defined (100%) cytopathic effect appeared in control samples (positive control). The presence of antiviral activity in samples of organogermanium compounds according to the invention was ascertained as the difference between the viral titers measured in the experiment and in the control.

[11] = reference for high intestinal permeability; cited from earlier work
[12] = tested on: herpes simplex virus (HSV-1); conditions: cited from earlier work
[13] = tested on: Varicella-Zoster virus; conditions: S-acetyl glutathione 0.35 mg/mL with three acyclovir concentrations, strongest at 0.9 mcg/mL acyclovir; cited from earlier work
[14] = tested on: HSV-1; conditions: combination of D609 and acyclovir; cited from earlier work

SMILES: Nc1nc2c(ncn2COCCO)c(=O)[nH]1 [acyclovir, 9-[(2-hydroxyethoxy)methyl] guanine]
- increase of acyclovir activity in a cell culture [1]: fivefold
- effect of combination against HSV-2 ([2]; acyclovir 0.1-3.4 mcg/mL with carbocyclic oxetanocin G 0.04-0.54 mcg/mL): synergistic effect
- effect of combination against HSV-2 ([2]; acyclovir 0.1-3.4 mcg/mL with oxetanocin G 0.4-4 mcg/mL): synergistic effect
- logP [3]: -1.57
- solubility ([4]; FaSSIF (fasted state simulated intestinal fluid), fassif): 1440 µg/mL (≈ 6.39 mM)
- solubility ([4]; FeSSIF (fed state simulated intestinal fluid), fessif): 1380 µg/mL (≈ 6.13 mM)
- solubility ([4]; aqueous dissolution medium at pH 1.2, pH 1.2, simulated gastric fluid): 3500 µg/mL (≈ 15.5 mM)
- solubility ([4]; aqueous dissolution medium at pH 4.5, pH 4.4, aqueous buffer): 2600 µg/mL (≈ 11.5 mM)
- bioavailability [5]: 15-20%
- concentration for 50% inhibition of the virus-induced cytopathic effect ([6]; acyclovir used alone): 0.4 µg/mL
- acyclovir concentration for 50% inhibition of the virus-induced cytopathic effect ([6]; combined with bis-netropsin 0.15 mcg/mL): 0.15 µg/mL
- acyclovir concentration for 50% inhibition of the virus-induced cytopathic effect ([6]; combined with netropsin 2.5 mcg/mL): 0.075 µg/mL
- effect of combination against HSV-1 ([7]; acyclovir 0.04-0.4 mcg/mL with carbocyclic oxetanocin G 0.01-0.2 mcg/mL): synergistic effect
- effect of combination against HSV-1 ([7]; acyclovir 0.04-0.4 mcg/mL with oxetanocin G 0.4-5.4 mcg/mL): synergistic effect
- solubility in hydrophobic systems [8]: almost insoluble
- Solubility (“high”/“low”) ([9]; FaSSIF): “low”
- Solubility (“high”/“low”) ([9]; FeSSIF): “low”
- Solubility (“high”/“low”) ([9]; pH 1.2): “high” (When D/S≦250 mL, the TD has “high” solubility in the relevant aqueous solution)
- Solubility (“high”/“low”) ([9]; pH 4.4-4.5 (4.4 for the tested compounds, 4.5 for acyclovir)): low and “low”
- Solubility (“high”/“low”) ([9]; pH 6.8): low and “low”
- solubility ([9]; pH 6.8): 2400 µg/mL (≈ 10.7 mM)

SMILES: Nc1ncnc2c1ncn2[C@@H]1O[C@H](CO)[C@@H](O)[C@@H]1O [vidarabine, 9-β-D-arabinofuranosyl adenine]
- water solubility (in words) [8]: poorly soluble

SMILES: CC(C)[C@H](N)C(=O)OCCOCn1cnc2c(=O)[nH]c(N)nc21 [valacyclovir, 2-(guanin-9-ylmethoxy)ethyl L-valine ether]
- reduction of the infectious activity of the HSV-1 “L2/R” virus [10]: 1.5 log

SMILES: COCCc1ccc(OCC(O)CNC(C)C)cc1 (centres unmarked) [metoprolol]
- log P of reference substance [11]: 1.72

SMILES: Nc1nc2c(ncn2COC(CO)CO)c(=O)[nH]1 [gancyclovir, 9-[(1,3-dihydroxy-2-propoxy)methyl]guanine]
- bioavailability [5]: 5%
- reduction in gancyclovir concentration ([6]; combination with netropsin and bis-netropsin): fivefold

SMILES: CC(=O)SC[C@H](NC(=O)CC[C@H](N)C(=O)O)C(=O)NCC(=O)O [S-acetyl glutathione]
- effect of combination with acyclovir against HSV-1 ([12]; S-acetyl glutathione combined with acyclovir): strong synergistic effect
- concentration from which efficient against HSV-1 [12]: ≥ 0.35 mg/mL
- effect of compositions with acyclovir against Varicella-Zoster virus [13]: noticeable synergistic effect

SMILES: S=C(S)OC1CC2CC1C1CCCC21 (centres unmarked) [D609, tricyclodecan-9-yl-xanthogenate]
- survival of animals infected with HSV-1 [14]: survival of all animals

SMILES: Nc1nc2c(ncn2CCC(CO)CO)c(=O)[nH]1 [pencyclovir, 9-[4-hydroxy-3-(hydroxymethyl)butyl]guanine]
- bioavailability [5]: 1.5%
- water solubility ([8]; at 20° C.): 1740 µg/mL (≈ 6.87 mM)
